# According to ChEMBL document CHEMBL1201862, “PubChem BioAssay data set” (2004):
#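 Compound exposure: 48 hours, 5 concentrations, 96-well plates. Here, GI50 denotes the concentration required for 50% inhibition of growth.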 The source made the active and inactive calls. No stated cut-off is given here; in the data, active = GI50 up to about 1.1 µM and inactive = higher.
# How the values were obtained:
# Assay in all cases: growth of human tumour cells (NCI), 48 h
# HT-29 = tested on: HT-29
# HCC 2998 = tested on: HCC 2998
# ACHN = tested on: ACHN
# HOP-92 = tested on: HOP-92
# NCI-H522 = tested on: NCI-H522
# HCT-116 = tested on: HCT-116
# NCI-H23 = tested on: NCI-H23
# U-251 = tested on: U-251
# MOLT-4 = tested on: MOLT-4
# RXF 393 = tested on: RXF 393
# HCT-15 = tested on: HCT-15
# Malme-3M = tested on: Malme-3M
# M14 = tested on: M14
# SK-MEL-28 = tested on: SK-MEL-28
# SF-295 = tested on: SF-295
# SK-MEL-5 = tested on: SK-MEL-5
# KM12 = tested on: KM12
# Hs-578T = tested on: Hs-578T
# OVCAR-4 = tested on: OVCAR-4
# IGROV-1 = tested on: IGROV-1
# DU-145 = tested on: DU-145
# SW-620 = tested on: SW-620
# MDA-MB-231 = tested on: MDA-MB-231
# SK-MEL-2 = tested on: SK-MEL-2
# RPMI-8226 = tested on: RPMI-8226
# PC-3 = tested on: PC-3
# A549 = tested on: A549
# HOP-62 = tested on: HOP-62
# CCRF-CEM = tested on: CCRF-CEM
# OVCAR-5 = tested on: OVCAR-5
# COLO 205 = tested on: COLO 205
# T47D = tested on: T47D
# UO-31 = tested on: UO-31
# OVCAR-3 = tested on: OVCAR-3
# SK-OV-3 = tested on: SK-OV-3
# NCI-H460 = tested on: NCI-H460
# MDA-MB-435 = tested on: MDA-MB-435
# K562 = tested on: K562
# A498 = tested on: A498
# CAKI-1 = tested on: CAKI-1
# 786-0 = tested on: 786-0
# SNB-19 = tested on: SNB-19
# MDA-N = tested on: MDA-N
# UACC-257 = tested on: UACC-257
# NCI/ADR-RES = tested on: NCI/ADR-RES
# UACC-62 = tested on: UACC-62
# EKVX = tested on: EKVX
# SF-268 = tested on: SF-268
# TK-10 = tested on: TK-10
# SR = tested on: SR
# SF-539 = tested on: SF-539
# OVCAR-8 = tested on: OVCAR-8
# SN12C = tested on: SN12C
# MCF7 = tested on: MCF7
# LOX IMVI = tested on: LOX IMVI
# SNB-75 = tested on: SNB-75
structure (smiles),measurement,setting,value
COc1cc2c[n+]3c4c(c2c(OC)c1OC)CCCC4CC3 (stereo not given),GI50,HT-29,> 100 µM (inactive)
same,GI50,HCC 2998,98.4 µM (inactive)
same,GI50,ACHN,> 100 µM (inactive)
same,GI50,HOP-92,> 100 µM (inactive)
same,GI50,NCI-H522,30.8 µM (inactive)
same,GI50,HCT-116,> 100 µM (inactive)
same,GI50,NCI-H23,34.8 µM (inactive)
same,GI50,U-251,17 µM (inactive)
same,GI50,MOLT-4,> 100 µM (inactive)
same,GI50,RXF 393,> 100 µM (inactive)
same,GI50,HCT-15,> 100 µM
same,GI50,Malme-3M,15.5 µM (inactive)
same,GI50,M14,> 100 µM (inactive)
same,GI50,SK-MEL-28,> 100 µM (inactive)
same,GI50,SF-295,> 100 µM (inactive)
same,GI50,SK-MEL-5,19.3 µM (inactive)
same,GI50,KM12,30.1 µM (inactive)
same,GI50,Hs-578T,9.2 µM (inactive)
same,GI50,OVCAR-4,> 100 µM (inactive)
same,GI50,IGROV-1,> 100 µM (inactive)
same,GI50,DU-145,> 100 µM (inactive)
same,GI50,SW-620,> 100 µM (inactive)
same,GI50,MDA-MB-231,> 100 µM (inactive)
same,GI50,SK-MEL-2,> 100 µM (inactive)
same,GI50,RPMI-8226,> 100 µM (inactive)
same,GI50,PC-3,> 100 µM (inactive)
same,GI50,A549,> 100 µM (inactive)
same,GI50,HOP-62,> 100 µM (inactive)
same,GI50,CCRF-CEM,35.3 µM (inactive)
same,GI50,OVCAR-5,> 100 µM (inactive)
same,GI50,COLO 205,> 100 µM (inactive)
same,GI50,T47D,27.9 µM (inactive)
same,GI50,UO-31,> 100 µM (inactive)
same,GI50,OVCAR-3,66.5 µM (inactive)
same,GI50,SK-OV-3,> 100 µM (inactive)
same,GI50,NCI-H460,> 100 µM (inactive)
same,GI50,MDA-MB-435,> 100 µM (inactive)
same,GI50,K562,62.4 µM (inactive)
same,GI50,A498,> 100 µM (inactive)
same,GI50,CAKI-1,> 100 µM (inactive)
same,GI50,786-0,> 100 µM (inactive)
same,GI50,SNB-19,36.6 µM (inactive)
same,GI50,MDA-N,> 100 µM (inactive)
same,GI50,UACC-257,35.6 µM (inactive)
same,GI50,NCI/ADR-RES,> 100 µM (inactive)
same,GI50,UACC-62,> 100 µM (inactive)
same,GI50,EKVX,> 100 µM (inactive)
CCCNC1=NC(C)=CSC(Nc2ccccc2)=C1C#N,GI50,ACHN,> 100 µM (inactive)
same,GI50,SF-268,> 100 µM (inactive)
same,GI50,TK-10,> 100 µM (inactive)
same,GI50,NCI-H522,> 100 µM (inactive)
same,GI50,HCT-116,> 100 µM (inactive)
same,GI50,NCI-H23,> 100 µM (inactive)
same,GI50,U-251,> 100 µM (inactive)
same,GI50,MOLT-4,> 100 µM (inactive)
same,GI50,RXF 393,> 100 µM (inactive)
same,GI50,HCT-15,> 100 µM
same,GI50,SR,> 100 µM (inactive)
same,GI50,Malme-3M,> 100 µM (inactive)
same,GI50,M14,> 100 µM (inactive)
same,GI50,SK-MEL-28,> 100 µM (inactive)
same,GI50,SF-295,> 100 µM (inactive)
same,GI50,SK-MEL-5,> 100 µM (inactive)
same,GI50,KM12,> 100 µM (inactive)
same,GI50,OVCAR-4,> 100 µM (inactive)
same,GI50,DU-145,> 100 µM (inactive)
same,GI50,SW-620,> 100 µM (inactive)
same,GI50,MDA-MB-231,> 100 µM (inactive)
same,GI50,SF-539,> 100 µM (inactive)
same,GI50,SK-MEL-2,> 100 µM (inactive)
same,GI50,RPMI-8226,> 100 µM (inactive)
same,GI50,PC-3,> 100 µM (inactive)
same,GI50,A549,> 100 µM (inactive)
same,GI50,HOP-62,> 100 µM (inactive)
same,GI50,OVCAR-5,> 100 µM (inactive)
same,GI50,COLO 205,> 100 µM (inactive)
same,GI50,T47D,> 100 µM (inactive)
same,GI50,UO-31,> 100 µM (inactive)
same,GI50,OVCAR-3,> 100 µM (inactive)
same,GI50,OVCAR-8,> 100 µM (inactive)
same,GI50,SK-OV-3,> 100 µM (inactive)
same,GI50,MDA-MB-435,> 100 µM (inactive)
same,GI50,K562,> 100 µM (inactive)
same,GI50,SN12C,> 100 µM (inactive)
same,GI50,A498,> 100 µM (inactive)
same,GI50,CAKI-1,> 100 µM (inactive)
same,GI50,786-0,> 100 µM (inactive)
same,GI50,SNB-19,> 100 µM (inactive)
same,GI50,MCF7,> 100 µM (inactive)
same,GI50,MDA-N,> 100 µM (inactive)
same,GI50,NCI/ADR-RES,> 100 µM (inactive)
same,GI50,UACC-62,> 100 µM (inactive)
CN(Cc1cnc2nc(N)nc(N)c2n1)c1ccc(C(=O)NC(CCC(=O)NCC(P(=O)(O)O)P(=O)(O)O)C(=O)O)cc1 (stereo not given),GI50,HT-29,5.27 µM (inactive)
same,GI50,ACHN,3.57 µM (inactive)
same,GI50,SF-268,6.11 µM (inactive)
same,GI50,HOP-92,< 0.01 µM (active)
same,GI50,LOX IMVI,2.52 µM (inactive)
same,GI50,NCI-H522,20.2 µM (inactive)
same,GI50,HCT-116,0.815 µM (active)
same,GI50,MOLT-4,3.18 µM (inactive)
same,GI50,HCT-15,5.94 µM
same,GI50,SR,< 0.01 µM (active)
same,GI50,Malme-3M,> 100 µM (inactive)
same,GI50,M14,6.01 µM (inactive)
same,GI50,SF-295,0.706 µM (active)
same,GI50,SK-MEL-5,13.3 µM (inactive)
same,GI50,Hs-578T,37.1 µM (inactive)
same,GI50,OVCAR-4,1.64 µM (inactive)
same,GI50,IGROV-1,9.04 µM (inactive)
same,GI50,DU-145,7.16 µM (inactive)
same,GI50,SW-620,4.7 µM (inactive)
same,GI50,MDA-MB-231,> 100 µM (inactive)
same,GI50,SK-MEL-2,> 100 µM (inactive)
same,GI50,PC-3,0.436 µM (active)
same,GI50,SNB-75,57.3 µM (inactive)
same,GI50,A549,4.99 µM (inactive)
same,GI50,HOP-62,5.11 µM (inactive)
same,GI50,COLO 205,> 100 µM (inactive)
same,GI50,T47D,40 µM (inactive)
same,GI50,OVCAR-3,23 µM (inactive)
same,GI50,OVCAR-8,7.6 µM (inactive)
same,GI50,SK-OV-3,15.7 µM (inactive)
same,GI50,NCI-H460,4.4 µM (inactive)
same,GI50,SN12C,7.21 µM (inactive)
same,GI50,786-0,81.1 µM (inactive)
same,GI50,MDA-N,4.97 µM (inactive)
same,GI50,UACC-257,12.6 µM (inactive)
same,GI50,NCI/ADR-RES,35.5 µM (inactive)
same,GI50,UACC-62,4.41 µM (inactive)
same,GI50,EKVX,> 100 µM (inactive)
